# Test results published in EP0255343A2, “L-aspartylfenchylamino alcohol derivatives” (priority 1986, dated 1988).
# Residues, ends and D or L forms follow the SMILES beside them.
# Assays:
# [1] = Sweetness threshold values determined by a limit method by a panel of 5 skilled flavorists; assay type: in vivo; settings: for Taste intensity Threshold Values (%): dissolved in water, limit method, panel of 5 skilled flavorists; for Degree of Sweetness (time): relative to sucrose = 1
# [2] = at 80°C and at a pH of 4; cited from earlier work
compound,measurement,setting,value
3-N-(L-aspartyl)amino-1-fenchyl-2-butanol [Compound A],Taste intensity Threshold Values (%),[1],0.001%
same,Degree of Sweetness (time),[1],600 time
3-N-(L-aspartyl)amino-4-fenchyl-2-butanol [Compound B],Taste intensity Threshold Values (%),[1],0.0012%
same,Degree of Sweetness (time),[1],500 time
COC(=O)C(NC(=O)[C@@H](N)CC(=O)O)C(=O)OC1C2(C)CCC(C2)C1(C)C (mixture of isomers) [L-aspartyl-DL-aminomalonic acid methyl fenchyl diester],stability,[2],lower than APM
"COC(=O)[C@H](Cc1ccccc1)NC(=O)[C@@H](N)CC(=O)O [APM, L-aspartyl-L-phenylalanine methyl ester] (H-Asp-Phe-OMe)",Taste intensity Threshold Values (%),[1],0.004%
same,Degree of Sweetness (time),[1],150 time
"OC[C@H]1O[C@@](CO)(O[C@H]2O[C@H](CO)[C@@H](O)[C@H](O)[C@H]2O)[C@@H](O)[C@@H]1O [Sucrose, sucrose]",Taste intensity Threshold Values (%),[1],0.6%
